Patent publication US9695155B2, “Herbicidal substituted pyrimidinyloxy benzene compounds” (E. I. DU PONT DE NEMOURS AND COMPANY, priority 2013, dated 2017)

Tests used:
giant foxtail = experiment: Test C postemergence; format: in vivo, Setaria faberii; settings: Setaria faberi, post-emergence
Outline: (§1)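 Rated visually on 0–100 (100 = complete control) after 13–15 days under glass. Treatments went onto freshly seeded loam/sand soil or onto emerged plants at the 1- to 4-leaf stage, using a surfactant-containing solvent formulation.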

ragweed [1] = experiment: Test A preemergence; format: in vivo, Ambrosia elatior; settings: 0 to 100 scale where 0 is no effect and 100 is complete control
Outline: (§2)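 Scoring: eye-based comparison with untreated controls, 0 for no effect through 100 for complete control, at about day 10. Treatments: directed soil spray preemergence; foliar spray postemergence on 2–10 cm plants at the one- to two-leaf stage. Medium: loam soil with sand.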

barnyardgrass = experiment: Test A postemergence; format: in vivo, Echinochloa crus-galli; settings: Echinochloa crus-galli, post-emergence, 240 h
Outline: as §2

wheat, winter [2] = experiment: Test C postemergence; format: in vivo, Triticum aestivum; settings: Triticum aestivum, post-emergence
Outline: as §1

yellow nutsedge [3] = experiment: Test C preemergence; format: in vivo, Cyperus esculentus; settings: Cyperus, pre-emergence, preemergence, scale 0 (no effect) to 100 (complete control), read-out: Nutsedge, Yellow plant response rating
Outline: as §1

johnsongrass [4] = experiment: Test C preemergence; format: in vivo, Sorghum halepense; settings: Sorghum halepense, pre-emergence, preemergence, read-out: Johnsongrass plant response rating
Outline: as §1

johnsongrass [5] = experiment: Test C postemergence; format: in vivo, Sorghum halepense; settings: Sorghum halepense, post-emergence
Outline: as §1

corn [6] = experiment: Test A postemergence; format: in vivo, Zea mays; settings: Zea mays, post-emergence, 240 h
Outline: as §2

yellow nutsedge [7] = experiment: Test C postemergence; format: in vivo, Cyperus esculentus; settings: Cyperus, post-emergence
Outline: as §1

large (Lg) crabgrass = experiment: Test C postemergence; format: in vivo, Digitaria sanguinalis; settings: Digitaria sanguinalis, post-emergence
Outline: as §1

corn [8] = experiment: Test C preemergence; format: in vivo, Zea mays; settings: Zea mays, pre-emergence
Outline: as §1

wheat, winter [9] = experiment: Test C preemergence; format: in vivo, Triticum aestivum; settings: Triticum aestivum, pre-emergence, preemergence, read-out: Wheat plant response rating
Outline: as §1

corn [10] = experiment: Test C postemergence; format: in vivo, Zea mays; settings: Zea mays, post-emergence
Outline: as §1

Italian ryegrass [11] = experiment: Test A preemergence; format: in vivo, Lolium multiflorum; settings: 0 to 100 scale where 0 is no effect and 100 is complete control
Outline: as §2

Italian ryegrass [12] = experiment: Test C preemergence; format: in vivo, Lolium multiflorum; settings: Lolium multiflorum, pre-emergence, preemergence, read-out: Ryegrass, Italian plant response rating
Outline: as §1

ragweed [13] = experiment: Test A postemergence; format: in vivo, Ambrosia elatior
Outline: as §2

[14] = 31 g ai/ha, visual, approximately 10 days
[15] = 16 g ai/ha, scale 0 to 100 (0 no effect, 100 complete control)
[16] = 62 g ai/ha, scale 0 (no effect) to 100 (complete control)
[17] = 125 g ai/ha, scale 0 (no effect) to 100 (complete control)
[18] = 31 g ai/ha, 0 to 100 scale, 0 no effect, 100 complete control

## Fc1cccc(Oc2ncc(Cl)cn2)c1-n1cc(C(F)F)nn1 [Compound 141, 5-chloro-2-[2-[4-(difluoromethyl)-1H-1,2,3-triazol-1-yl]-3-fluorophenoxy]pyrimidine]
Giant foxtail; 16 g ai/ha, postemergence, 0 is no effect, 100 is complete control, read-out: Plant response rating (0 to 100), Foxtail, Giant
  pest or weed control at 16 g/ha: 10%
Giant foxtail; 125 g ai/ha, postemergence, visual rating, scale 0 to 100 (0 no effect, 100 complete control), read-out: Plant response rating, Foxtail, Giant
  pest or weed control at 125 g/ha: 70%
Giant foxtail; Postemergence, 62 g ai/ha, scale 0 to 100 (0 no effect, 100 complete control), read-out: Plant response rating, Foxtail, Giant
  pest or weed control at 62 g/ha: 45%
Ragweed [1]; [14]
  Plant response rating, Ragweed: 90
Ragweed [1]; 125 g ai/ha
  Plant response rating, Ragweed: 100
barnyardgrass; 31 g ai/ha, 0 to 100 scale, 0 no effect, 100 complete control, read-out: Plant response rating, Barnyardgrass
  pest or weed control at 31 g/ha: 60%
barnyardgrass; 125 g ai/ha, 0 to 100 scale where 0 is no effect and 100 is complete control, read-out: Barnyardgrass plant response rating
  pest or weed control at 125 g/ha: 100%
wheat, winter [2]; 16 g ai/ha, postemergence, 0 is no effect, 100 is complete control, read-out: Plant response rating (0 to 100), Wheat
  plant injury at 16 g/ha: 0%
wheat, winter [2]; 125 g ai/ha, postemergence, visual rating, scale 0 to 100 (0 no effect, 100 complete control), read-out: Plant response rating, Wheat
  plant injury at 125 g/ha: 25%
wheat, winter [2]; Postemergence, 62 g ai/ha, scale 0 to 100 (0 no effect, 100 complete control), read-out: Plant response rating, Wheat
  plant injury at 62 g/ha: 5%
Yellow nutsedge [3]; 62 g ai/ha
  pest or weed control at 62 g/ha: 70%
Yellow nutsedge [3]; 125 g ai/ha
  pest or weed control at 125 g/ha: 95%
Johnsongrass [4]; [15]
  pest or weed control at 16 g/ha: 30%
Johnsongrass [4]; [16]
  pest or weed control at 62 g/ha: 100%
Johnsongrass [4]; [17]
  pest or weed control at 125 g/ha: 100%
Johnsongrass [5]; 16 g ai/ha, postemergence, 0 is no effect, 100 is complete control, read-out: Plant response rating (0 to 100), Johnsongrass
  pest or weed control at 16 g/ha: 5%
Johnsongrass [5]; 125 g ai/ha, postemergence, visual rating, scale 0 to 100 (0 no effect, 100 complete control), read-out: Plant response rating, Johnsongrass
  pest or weed control at 125 g/ha: 30%
Johnsongrass [5]; Postemergence, 62 g ai/ha, scale 0 to 100 (0 no effect, 100 complete control), read-out: Plant response rating, Johnsongrass
  pest or weed control at 62 g/ha: 10%
Corn [6]; [18]
  Corn plant response rating (crop injury, 0 = no effect, 100 = complete kill) at 31 g/ha: 30%
Corn [6]; 125 g ai/ha, 0 to 100 scale where 0 is no effect and 100 is complete control, read-out: Corn plant response rating
  plant injury at 125 g/ha: 60%
Yellow nutsedge [7]; 16 g ai/ha, postemergence, 0 is no effect, 100 is complete control, read-out: Plant response rating (0 to 100), Nutsedge, Yellow
  pest or weed control at 16 g/ha: 10%
Yellow nutsedge [7]; 125 g ai/ha, postemergence, visual rating, scale 0 to 100 (0 no effect, 100 complete control), read-out: Plant response rating, Nutsedge, Yellow
  pest or weed control at 125 g/ha: 15%
Yellow nutsedge [7]; Postemergence, 62 g ai/ha, scale 0 to 100 (0 no effect, 100 complete control), read-out: Plant response rating, Nutsedge, Yellow
  pest or weed control at 62 g/ha: 15%
Large (Lg) crabgrass; 16 g ai/ha, postemergence, 0 is no effect, 100 is complete control, read-out: Plant response rating (0 to 100), Crabgrass, Large
  pest or weed control at 16 g/ha: 5%
Large (Lg) crabgrass; 125 g ai/ha, postemergence, visual rating, scale 0 to 100 (0 no effect, 100 complete control), read-out: Plant response rating, Crabgrass, Large
  pest or weed control at 125 g/ha: 45%
Large (Lg) crabgrass; Postemergence, 62 g ai/ha, scale 0 to 100 (0 no effect, 100 complete control), read-out: Plant response rating, Crabgrass, Large
  pest or weed control at 62 g/ha: 10%
Corn [8]; 16 g ai/ha, preemergence, scale 0 to 100 (0 no effect, 100 complete control), read-out: Corn plant response rating
  plant injury at 16 g/ha: 5%
Corn [8]; 62 g ai/ha, preemergence, scale 0 (no effect) to 100 (complete control), read-out: Corn plant response rating
  plant injury at 62 g/ha: 80%
Corn [8]; 125 g ai/ha, preemergence, scale 0 (no effect) to 100 (complete control), read-out: Corn plant response rating
  plant injury at 125 g/ha: 90%
Corn [8]; Preemergence, 31 g ai/ha, scale 0 to 100, 0 no effect, 100 complete control
  Corn plant response rating (crop injury, 0 = no effect, 100 = complete kill) at 31 g/ha: 20%
wheat, winter [9]; [15]
  plant injury at 16 g/ha: 0%
wheat, winter [9]; [16]
  plant injury at 62 g/ha: 40%
wheat, winter [9]; [17]
  plant injury at 125 g/ha: 60%
Corn [10]; 16 g ai/ha, postemergence, 0 is no effect, 100 is complete control, read-out: Plant response rating (0 to 100), Corn
  plant injury at 16 g/ha: 5%
Corn [10]; 125 g ai/ha, postemergence, visual rating, scale 0 to 100 (0 no effect, 100 complete control)
  Corn plant response rating (crop injury, 0 = no effect, 100 = complete kill) at 125 g/ha: 20%
Corn [10]; Postemergence, 62 g ai/ha, scale 0 to 100 (0 no effect, 100 complete control)
  Corn plant response rating (crop injury, 0 = no effect, 100 = complete kill) at 62 g/ha: 5%
Italian ryegrass [11]; [14]
  Plant response rating, Ryegrass, Italian: 30
Italian ryegrass [11]; 125 g ai/ha
  Plant response rating, Ryegrass, Italian: 80
Italian ryegrass [12]; [15]
  pest or weed control at 16 g/ha: 40%
Italian ryegrass [12]; [16]
  pest or weed control at 62 g/ha: 75%
Italian ryegrass [12]; [17]
  pest or weed control at 125 g/ha: 100%
Ragweed [13]; [18]
  Plant response rating, Ragweed: 80
Ragweed [13]; 125 g ai/ha, 0 to 100 scale where 0 is no effect and 100 is complete control
  Ragweed plant response rating: 100
